The results in this text go back to ChEMBL document CHEMBL1156829 (Proc Natl Acad Sci U S A, 2008).

Where only a bound is given, the exact number is not on record here.

For data set [1], the system named is Plasmodium falciparum. In words: NOVARTIS: Inhibition of Plasmodium falciparum 3D7 (drug-susceptible) proliferation in erythrocyte-based infection assay. The format is functional, organism-based. To be noted: Plasmodium falciparum, 3D7.
The subject of data set [2] is Plasmodium falciparum. Kind of data set: NOVARTIS: Inhibition of Plasmodium falciparum W2 (drug-resistant) proliferation in erythrocyte-based infection assay. The format is functional, organism-based. Particulars: Plasmodium falciparum, W2; read-out: EC50.
Data set [3] can be described thus: NOVARTIS: Cytotoxicity against human hepatocellular carcinoma cell line (Huh7). It counts as toxicity, cell-based, Huh-7. Particulars: Huh7 cells (hepatocellular carcinoma cell line).

Take `CC(C)(C)NC(=O)C(c1ccc(F)cc1)N(CCCN1CCOCC1)C(=O)c1ccc(-c2ccccc2)[nH]1` (centres undefined): the EC50 (usually the concentration at which the effect is half-maximal) was found to be 1010 nM with Plasmodium falciparum [1] and 562 nM in the data set with Plasmodium falciparum [2]. The CC50 (as a rule, the concentration at which the toxic effect on the cells reaches its halfway point) in data set [3] was more than 10000 nM.
The corresponding values for `CCc1ccccc1NC(C)=O` are more than 12500 nM, 5410 nM and more than 100000 nM.
The corresponding values for `CCC(c1nc2ccccc2c(=O)n1-c1ccc(Br)cc1)N(CCc1ccccc1)C(=O)c1cccc(C(F)(F)F)c1` (centres undefined) are 871 nM, 545 nM and more than 10000 nM.
For `COc1c(N2CCN(Cc3c(C)cc(C)cc3C)CC2)c2nc3oc2c2c(OC(=O)C(C)(C)C)c(C)c4c(c12)[C@@H](O)[C@@](C)(OC=C[C@H](OC)[C@@H](C)[C@@H](OC(C)=O)C(C)[C@H](O)[C@H](C)[C@@H](O)C(C)C=CC=C3C)O4` (some centres undefined), in that order: 221 nM, 554 nM and more than 10000 nM.
`Cc1c[n+](Cc2ccccc2)ccc1/C=C/c1ccccc1`: the EC50 in the data set on Plasmodium falciparum [1] amounted to 502 nM; in the data set with Plasmodium falciparum [2], 543 nM. The molecule further had a CC50 in data set [3] of more than 10000 nM.
The corresponding values for `COc1ccc(/C=C2\SC(=Nc3ccc(F)cc3)NC2=O)c(OC)c1` are 270 nM, 543 nM and more than 10000 nM.
For `CN(C)CCNC(=O)COc1ccc(-c2nc3ccccc3s2)cc1CN(C)C`, in that order: 622 nM, 557 nM and more than 10000 nM.
The corresponding values for `CC(C)N1CC[C@@H](N2CCN(c3cccc(C(F)(F)F)c3)CC2)[C@@H](CCC(=O)N(C)C2CCN(C)CC2)C1` are more than 1040 nM, 285 nM and 5130 nM.
Regarding `O=C(NN=CC1CC=CCC1)c1ccc([N+](=O)[O-])cc1Cl` (centres undefined), the EC50 in the data set with Plasmodium falciparum [1] is more than 1250 nM; in the data set with Plasmodium falciparum [2], more than 549 nM. For the same molecule, the half-maximal cytotoxic concentration (CC50) in data set [3] is more than 10000 nM.
For `NNC(=O)C1CCCN1S(=O)(=O)c1ccc(Cl)cc1` (centres undefined), in that order: 564 nM, 547 nM and more than 10000 nM.
The corresponding values for `COc1cc(C(=O)N2CCN(Cc3cccc(Br)c3)CC2)cc(OC)c1OC` are more than 12500 nM, 5580 nM and more than 100000 nM.
For `CC1=C(C(=O)Nc2ccccn2)C(c2ccc(O)cc2)n2ncnc2N1` (centres undefined), in that order: more than 1250 nM, 561 nM and more than 10000 nM.
On to `Cc1sc2nc(C3CC3)n(C3CCN(C(=O)C4CC=CCC4)CC3)c(=O)c2c1C` (centres undefined), for which the figures for the EC50 in the data set on Plasmodium falciparum [1] and in the data set on Plasmodium falciparum [2] were more than 1250 nM and more than 560 nM, respectively. For the same molecule, in data set [3], the CC50 is more than 10000 nM.
For `COc1cc(/C=C(\C#N)c2nc3ccccc3[nH]2)ccc1OCc1ccc(Cl)cc1`, in that order: 321 nM, 558 nM and more than 10000 nM.
As to `CCOC(=O)C1=NNC2C(=O)N(c3cccc(C)c3C)C(=O)C12` (centres undefined), the concentration for a half-maximal effect (EC50) with Plasmodium falciparum [1] was more than 1250 nM; in the data set on Plasmodium falciparum [2], 563 nM. This molecule also came in with a CC50 in data set [3] of more than 10000 nM.
`CCCC(=O)N1CCN(C(=O)c2nc(-c3ccccc3)nc(C(C)C)c2C(=O)OC)CC1C` (centres undefined): the EC50 amounted to 880 nM in the data set on Plasmodium falciparum [1] and 475 nM in the data set on Plasmodium falciparum [2]. The CC50 in data set [3] was more than 8440 nM.
In the case of `COc1ccc(N(CC(=O)NCCc2ccc(F)cc2)S(=O)(=O)c2ccccc2)cc1`, the EC50 is more than 12500 nM in the data set on Plasmodium falciparum [1] and 5620 nM in the data set with Plasmodium falciparum [2]. The CC50 in data set [3] was more than 100000 nM.
For `CCOc1ccc2c(c1)sc(=NC(=O)Nc1ccc(OC)cc1)n2C`, in that order: more than 8300 nM, 997 nM and 17800 nM.
The corresponding values for `CCOc1ccccc1-n1c(SCC(=O)c2ccc(Cl)cc2)nc2[nH]ncc2c1=O` are more than 12500 nM, 4020 nM and 73000 nM.
The corresponding values for `O=C(C1CCCCN1)N1CC(c2ccccc2)c2ccccc2C1CN1CCCCC1` (centres undefined) are 439 nM, 257 nM and 4680 nM.
With `Cc1ccccc1OCC(O)Cn1c(NC2CCCCC2)nc2c1c(=O)[nH]c(=O)n2C` (centres undefined), the EC50 in the data set with Plasmodium falciparum [1] is more than 1700 nM; in the data set with Plasmodium falciparum [2] it was 549 nM. The molecule also came in with a 50% cytotoxic concentration (CC50) in data set [3] of more than 10000 nM.
The corresponding values for `O=C(Nc1ccc2c(c1)CN(C1CCSCC1)CC2)C1(c2ccccc2)CC1` are more than 12500 nM, more than 5530 nM and more than 100000 nM.
For `COc1ccc(C(=O)N(C)CCCNc2ccnc3cc(Cl)ccc23)cc1`, in that order: 797 nM, 553 nM and more than 10000 nM.
The corresponding values for `CCN1/C(=C/c2sc3ccc(OC)cc3[n+]2CC)C=Cc2cc(OC)ccc21` are 527 nM, 552 nM and more than 10000 nM.
Regarding `O=C1NC(=O)C(Cc2ccc(S(=O)(=O)N3CCN(c4ccccc4)CC3)cc2)S1` (centres undefined), the concentration giving a half-maximal response (EC50) in the data set with Plasmodium falciparum [1] stood at 790 nM; with Plasmodium falciparum [2] it was 5430 nM. This molecule also showed a CC50 in data set [3] of more than 100000 nM.
In the case of `Cc1cc(/C=C2\SC(=Nc3ccccc3)N(C3CCCCC3)C2=O)c(C)n1-c1ccc(Br)cc1`, the results for the concentration giving a half-maximal response (EC50) in the data set on Plasmodium falciparum [1] and in the data set on Plasmodium falciparum [2] were 476 nM and more than 542 nM, respectively. Besides, in data set [3], the CC50 is more than 10000 nM.
Take `CCOC(=O)C1=C(N)N(c2cccc([N+](=O)[O-])c2)C2=C(C(=O)CC(C)(C)C2)C1c1ccc(Cl)cc1` (centres undefined): the figures for the EC50 in the data set with Plasmodium falciparum [1] and with Plasmodium falciparum [2] were 6140 nM and 5550 nM, respectively. For the same molecule, the cytotoxic concentration (CC50) in data set [3] is more than 100000 nM.
For `COc1cc(NC(C)CCCN(Cc2ccccc2OC)C(=O)C(Cl)Cl)c2ncccc2c1` (centres undefined), in that order: more than 1500 nM, 554 nM and more than 10000 nM.
The corresponding values for `COc1ccc(Cn2c(-c3ccc(Cl)cc3)c[n+]3ccccc23)cc1` are 693 nM, 541 nM and more than 10000 nM.
The corresponding values for `CCN(CC)c1scc(-c2ccc(Br)cc2)[s+]1` are 349 nM, 541 nM and more than 10000 nM.
Take `CC(=O)c1ccc(NC(=O)CN(C)S(=O)(=O)c2ccc3[nH]c4c(c3c2)CCCC4)cc1`: the EC50 was more than 12500 nM with Plasmodium falciparum [1] and 3580 nM in the data set on Plasmodium falciparum [2]. In data set [3], this molecule displayed a cytotoxic concentration (CC50) of 66900 nM.
The corresponding values for `CCC(CC)=NNC(=O)C(=O)NC1CCCCC1` are 231 nM, 535 nM and more than 10000 nM.
The corresponding values for `COc1cc(CNNc2nc3cc(Cl)ccc3[nH]2)cc(OC)c1OC` are 308 nM, 541 nM and more than 10000 nM.
For `COc1cccc(OCCN2CCN(c3ncnc4c3cnn4-c3ccccc3)CC2)c1`, in that order: 6250 nM, 4050 nM and more than 75700 nM.
As to `CCOCCCNC(=O)c1cc(NC(=O)c2ccc(Cl)c([N+](=O)[O-])c2)ccc1N1CCCCC1`, the figures for the EC50 with Plasmodium falciparum [1] and in the data set on Plasmodium falciparum [2] were more than 1250 nM and 77 nM, respectively. Further, in data set [3], half-maximal cytotoxicity (CC50) was put at 1420 nM.
As to `COc1ccc(-n2nc(C(C)(C)C)cc2NC(=O)CN(C(=O)c2ccc(C(C)(C)C)cc2)C(C)C)cc1`, the concentration giving a half-maximal response (EC50) came to 1680 nM in the data set with Plasmodium falciparum [1] and 1850 nM in the data set on Plasmodium falciparum [2]. The same molecule had a 50% cytotoxic concentration (CC50) in data set [3] of 34600 nM.
The corresponding values for `O=C(C1CCN(S(=O)(=O)c2cccc3nonc23)CC1)N1CCCc2ccccc21` are more than 1250 nM, 534 nM and more than 10000 nM.
With `COc1ccccc1Nc1nc(NCC2CCCO2)c2ccccc2n1` (centres undefined), the 50% effective concentration (EC50) in the data set on Plasmodium falciparum [1] worked out at 1040 nM; in the data set with Plasmodium falciparum [2], 1570 nM. Further, in data set [3], the CC50 was determined as 29400 nM.
For `O=C(NCCCCNc1ccnc2cc(Cl)ccc12)C(c1ccccc1)c1ccccc1`, in that order: 730 nM, 440 nM and more than 8210 nM.
The corresponding values for `CCC(=O)NCc1nnc(SCc2cccc(C(F)(F)F)c2)n1-c1cccc(OC)c1` are more than 12500 nM, 5610 nM and more than 100000 nM.
Turning to `CCCCCCN(C(=O)c1cccc([N+](=O)[O-])c1)C(CC)c1nc2ccccc2c(=O)n1-c1ccccc1OC` (centres undefined), the concentration for a half-maximal effect (EC50) in the data set with Plasmodium falciparum [1] was 983 nM; with Plasmodium falciparum [2], 355 nM. Moreover, in data set [3], the half-maximal cytotoxic concentration (CC50) was more than 6450 nM.
The corresponding values for `CCOc1ccc2nc3ccc([N+](=O)[O-])cc3c(NC)c2c1` are 222 nM, 534 nM and more than 10000 nM.
The corresponding values for `C=CC[n+]1ccc(/C=C/c2ccccc2)c(C)c1` are 656 nM, 558 nM and more than 10000 nM.
The corresponding values for `CC(C)CCNc1ncc(C(=O)NCC(C)C)c(NCCc2ccccc2)n1` are 724 nM, 543 nM and more than 10000 nM.
With `CCCCCCN(C(=O)c1ccc2ccccc2c1)C(CC)c1nc2ccccc2c(=O)n1-c1ccc(F)cc1` (centres undefined), the results for the concentration giving a half-maximal response (EC50) in the data set with Plasmodium falciparum [1] and in the data set with Plasmodium falciparum [2] were 454 nM and 548 nM, respectively. In addition, the 50% cytotoxic concentration (CC50) in data set [3] was more than 10000 nM.
For `COC(=O)C[S+]([O-])c1ccccc1` (centres undefined), in that order: 647 nM, 543 nM and more than 10000 nM.
The corresponding values for `Cc1cc(/C=C2/SC(=Nc3ccccc3)NC2=O)c(C)n1-c1cccc([N+](=O)[O-])c1` are 395 nM, 556 nM and more than 10000 nM.
Regarding `C[n+]1cccc(/C=C2/c3ccccc3-c3ncccc32)c1`, the EC50 turned out to be 809 nM with Plasmodium falciparum [1] and 555 nM in the data set with Plasmodium falciparum [2]. Besides, the CC50 in data set [3] is more than 10000 nM.
The corresponding values for `CCN(CC)CCCNC(=S)N(Cc1ccccc1)Cc1cc2cc(C)c(Cl)cc2[nH]c1=O` are 1940 nM, 1160 nM and 20900 nM.
Regarding `CCc1c(C(=O)N2CCN(C(=O)CCl)C(C)C2)cnn1-c1nc(-c2ccc(Br)cc2)cs1` (centres undefined), the half-maximal effective concentration (EC50) with Plasmodium falciparum [1] is 656 nM; in the data set with Plasmodium falciparum [2], 481 nM. In data set [3], the CC50 is more than 8660 nM.
With `Cc1ccc(CN=C(N)Nc2nc(C)cc(C)n2)cc1`, the concentration for a half-maximal effect (EC50) in the data set on Plasmodium falciparum [1] turned out to be 653 nM; in the data set on Plasmodium falciparum [2] it was 609 nM. This molecule also had a CC50 in data set [3] of 11200 nM.
For `Sc1nc2ccc3nsnc3c2[nH]1`, in that order: 713 nM, 537 nM and more than 10000 nM.
The corresponding values for `CCc1cc2c(Sc3nnc(N)s3)ncnc2s1` are 546 nM, 540 nM and more than 10000 nM.
